The results in this text go back to paper PMC3662962 (Biochemical and biophysical research communications, 2010).

The experiment has as its target RsbU phosphatase domain (Mycobacterium tuberculosis, UniProt P9WLZ7). The experiment can be described thus: biochemical.

Sequence of RsbU phosphatase domain (P9WLZ7 190-397): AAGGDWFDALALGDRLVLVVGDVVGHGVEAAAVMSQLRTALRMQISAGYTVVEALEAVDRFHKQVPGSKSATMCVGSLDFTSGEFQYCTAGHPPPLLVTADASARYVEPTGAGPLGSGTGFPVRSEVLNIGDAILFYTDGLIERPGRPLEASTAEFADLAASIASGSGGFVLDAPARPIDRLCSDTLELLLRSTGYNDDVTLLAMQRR

For `O=P(O)(O)O` [inorganic phosphate], affinity was put at a Ki of 320 nM.
